Numbers after ± are expanded uncertainties.
Assays:
[1] = refractive index (Na D-line) (dimensionless); xn = mol fraction of the nth substance listed; settings: 298.15 K, 101 kPa, Liquid, Standard Abbe refractometry
[2] = xn = mol fraction of the nth substance listed; settings: 298.15 K, 101 kPa, Liquid, Vibrating tube method
[3] = for vapor or sublimation pressure: Transpiration method; for Normal melting temperature: DTA; for mass density: 298.15 K, 101 kPa, Vibrating tube method
[4] = Molar enthalpy of transition or fusion; settings: Crystal; DSC
[5] = refractive index (Na D-line) (dimensionless); settings: 298.15 K; 101.33 kPa; Liquid; Standard Abbe refractometry

Brc1ccc(-c2ccccc2)cc1 [4-bromo-1,1'-biphenyl] + c1ccccc1
refractive index ([1]; x1 = 0.00109): 1.49787 ± 0.00031 | refractive index ([1]; x1 = 0.00186): 1.4981 ± 0.00031 | refractive index ([1]; x1 = 0.00189): 1.49809 ± 0.00031 | refractive index ([1]; x1 = 0.00237): 1.4982 ± 0.00031 | mass density ([2]; x1 = 0.00109): 874.692 ± 0.16 kg/m3 | mass density ([2]; x1 = 0.00186): 875.469 ± 0.16 kg/m3 | mass density ([2]; x1 = 0.00189): 875.45 ± 0.16 kg/m3 | mass density ([2]; x1 = 0.00237): 875.983 ± 0.17 kg/m3

Brc1ccc(-c2ccccc2)cc1 [4-bromo-1,1'-biphenyl]
vapor or sublimation pressure ([3]; 303.2 K, Crystal): 9e-05 ± 1e-05 kPa | vapor or sublimation pressure ([3]; 308.2 K, Crystal): 0.00016 ± 1e-05 kPa | vapor or sublimation pressure ([3]; 313 K, Crystal): 0.00027 ± 2e-05 kPa | vapor or sublimation pressure ([3]; 318.3 K, Crystal): 0.00048 ± 4e-05 kPa | vapor or sublimation pressure ([3]; 323.4 K, Crystal): 0.00083 ± 6e-05 kPa | vapor or sublimation pressure ([3]; 326.2 K, Crystal): 0.00109 ± 8e-05 kPa | vapor or sublimation pressure ([3]; 328.2 K, Crystal): 0.00137 ± 0.0001 kPa | vapor or sublimation pressure ([3]; 333.3 K, Crystal): 0.0023 ± 0.00017 kPa | vapor or sublimation pressure ([3]; 338.3 K, Crystal): 0.00364 ± 0.00026 kPa | vapor or sublimation pressure ([3]; 343.1 K, Crystal): 0.0056 ± 0.0004 kPa | vapor or sublimation pressure ([3]; 348.3 K, Crystal): 0.00907 ± 0.00066 kPa | vapor or sublimation pressure ([3]; 353 K, Crystal): 0.01426 ± 0.001 kPa | vapor or sublimation pressure ([3]; 355.7 K, Crystal): 0.0165 ± 0.0012 kPa | vapor or sublimation pressure ([3]; 358.4 K, Crystal): 0.02207 ± 0.0016 kPa | vapor or sublimation pressure ([3]; 360.2 K, Crystal): 0.0253 ± 0.0018 kPa | Normal melting temperature ([3]; Crystal): 89.0 ± 0.5 °C | Molar enthalpy of transition or fusion [4]: 3.9 ± 0.12 kcal/mol

c1ccccc1 [benzene]
mass density ([3]; Liquid): 873.633 ± 0.13 kg/m3 [middle of 6 runs] | refractive index [5]: 1.49755 ± 0.00031

Brc1ccc(-c2ccc(Br)cc2)cc1 [4,4'-dibromo-1,1'-biphenyl] + c1ccccc1
refractive index ([1]; x1 = 0.00076): 1.49787 ± 0.00031 | refractive index ([1]; x1 = 0.0009): 1.49791 ± 0.00031 | refractive index ([1]; x1 = 0.00107): 1.49796 ± 0.00031 | refractive index ([1]; x1 = 0.00116): 1.49802 ± 0.00031 | mass density ([2]; x1 = 0.00076): 875.001 ± 0.2 kg/m3 | mass density ([2]; x1 = 0.0009): 875.213 ± 0.2 kg/m3 | mass density ([2]; x1 = 0.00107): 875.48 ± 0.2 kg/m3 | mass density ([2]; x1 = 0.00116): 875.632 ± 0.2 kg/m3

Brc1c2ccccc2c(Br)c2ccccc12 [9,10-dibromoanthracene]
Normal melting temperature ([3]; Crystal): 224.7 ± 0.4 °C | Molar enthalpy of transition or fusion [4]: 6.86 ± 0.167 kcal/mol

c1ccccc1 [benzene] + Brc1ccc(-c2ccccc2)cc1
refractive index ([1]; x2 = 0): 1.49755 ± 0.00031 | mass density ([2]; x2 = 0): 873.616 ± 0.16 kg/m3

ClC(Cl)(Cl)Cl [tetrachloromethane]
mass density ([3]; Liquid): 1584.26 ± 0.27 kg/m3 | refractive index [5]: 1.45715 ± 0.00031

Clc1ccc(Br)cc1 [1-bromo-4-chlorobenzene] + c1ccccc1
refractive index ([1]; x1 = 0.00231): 1.49779 ± 0.00031 | refractive index ([1]; x1 = 0.00253): 1.49781 ± 0.00031 | refractive index ([1]; x1 = 0.00268): 1.49782 ± 0.00031 | mass density ([2]; x1 = 0.00231): 875.875 ± 0.16 kg/m3 | mass density ([2]; x1 = 0.00253): 876.093 ± 0.16 kg/m3 | mass density ([2]; x1 = 0.00268): 876.25 ± 0.16 kg/m3

c1ccccc1 [benzene] + Brc1ccc(Br)c2ccccc12
refractive index ([1]; x2 = 0): 1.49755 ± 0.00031 | mass density ([2]; x2 = 0): 873.652 ± 0.21 kg/m3

Brc1cccc(Br)c1 [1,3-dibromobenzene]
vapor or sublimation pressure ([3]; 276.4 K, Liquid): 0.00508 ± 0.00037 kPa | vapor or sublimation pressure ([3]; 278.7 K, Liquid): 0.00646 ± 0.00047 kPa | vapor or sublimation pressure ([3]; 281.1 K, Liquid): 0.00785 ± 0.00056 kPa | vapor or sublimation pressure ([3]; 282.3 K, Liquid): 0.0086 ± 0.00062 kPa | vapor or sublimation pressure ([3]; 284.7 K, Liquid): 0.01072 ± 0.00077 kPa | vapor or sublimation pressure ([3]; 286.9 K, Liquid): 0.01274 ± 0.00091 kPa | vapor or sublimation pressure ([3]; 288.8 K, Liquid): 0.01468 ± 0.0011 kPa | vapor or sublimation pressure ([3]; 289.2 K, Liquid): 0.0154 ± 0.0011 kPa | vapor or sublimation pressure ([3]; 292.3 K, Liquid): 0.01899 ± 0.0014 kPa | vapor or sublimation pressure ([3]; 292.8 K, Liquid): 0.01997 ± 0.0014 kPa | vapor or sublimation pressure ([3]; 295 K, Liquid): 0.02324 ± 0.0016 kPa | vapor or sublimation pressure ([3]; 296.2 K, Liquid): 0.02592 ± 0.0019 kPa | vapor or sublimation pressure ([3]; 298.8 K, Liquid): 0.03143 ± 0.0022 kPa | vapor or sublimation pressure ([3]; 301 K, Liquid): 0.03698 ± 0.0027 kPa | vapor or sublimation pressure ([3]; 301.1 K, Liquid): 0.03822 ± 0.0027 kPa | vapor or sublimation pressure ([3]; 304.2 K, Liquid): 0.04771 ± 0.0033 kPa | vapor or sublimation pressure ([3]; 304.9 K, Liquid): 0.0474 ± 0.0034 kPa | vapor or sublimation pressure ([3]; 307.2 K, Liquid): 0.05893 ± 0.0042 kPa | vapor or sublimation pressure ([3]; 308.9 K, Liquid): 0.06635 ± 0.0047 kPa | vapor or sublimation pressure ([3]; 310 K, Liquid): 0.07138 ± 0.005 kPa | vapor or sublimation pressure ([3]; 312.9 K, Liquid): 0.08294 ± 0.006 kPa | vapor or sublimation pressure ([3]; 313.3 K, Liquid): 0.08608 ± 0.0062 kPa | vapor or sublimation pressure ([3]; 315.2 K, Liquid): 0.1012 ± 0.0072 kPa | vapor or sublimation pressure ([3]; 317.8 K, Liquid): 0.1178 ± 0.0083 kPa

Brc1ccc(Br)c2ccccc12 [1,4-dibromonaphthalene]
Normal melting temperature ([3]; Crystal): 80.0 ± 0.9 °C | Molar enthalpy of transition or fusion [4]: 5.04 ± 0.12 kcal/mol

c1ccccc1 [benzene] + Brc1ccccc1Br
refractive index ([1]; x2 = 0): 1.49776 ± 0.00031 | mass density ([2]; x2 = 0): 873.478 ± 0.19 kg/m3

c1ccccc1 [benzene] + Brc1ccc(-c2ccc(Br)cc2)cc1
refractive index ([1]; x2 = 0): 1.49755 ± 0.00031 | mass density ([2]; x2 = 0): 873.633 ± 0.22 kg/m3

c1ccccc1 [benzene] + Clc1ccc(Br)cc1
refractive index ([1]; x2 = 0): 1.49755 ± 0.00031 | mass density ([2]; x2 = 0): 873.613 ± 0.16 kg/m3
